Source: patent US8299100B2, “Potent and selective neuronal nitric oxide synthase inhibitors with improved membrane permeability” (Northwestern University, priority 2009, dated 2012)
Where two headings read alike, the source gives them in different places.

Assays:
bovine eNOS = bovine eNOS (Bos taurus, UniProt P29473); test: NOS hemoglobin capture assay, purified recombinant enzyme (eNOS); conditions: for selectivity n/e: ratio of Ki (eNOS) to Ki (nNOS)
nNOS = nNOS (Rattus norvegicus, UniProt P29476); test: cell-based assay of inhibitor potency (membrane permeability); conditions: for IC50: Table 3, cell-based assay; for increase in cell membrane permeation: relative to 1, from IC50/IC50(cell)
rat nNOS = rat nNOS (Rattus norvegicus, UniProt P29476); test: NOS hemoglobin capture assay, purified recombinant enzyme (nNOS)
murine macrophage iNOS = murine macrophage iNOS (Mus musculus, UniProt P29477); test: NOS hemoglobin capture assay, purified recombinant enzyme (iNOS); conditions: for selectivity n/i: ratio of Ki (iNOS) to Ki (nNOS)
[1] = read-out: Ki nNOS, Table 4, Ki calculated from measured IC50, 10 μM L-arginine

| Ki (bovine eNOS) | IC50 (nNOS) | increase in cell membrane permeation (nNOS) | Ki (rat nNOS) | Ki (murine macrophage iNOS) | selectivity n/e (bovine eNOS; Table 4) | selectivity n/i (murine macrophage iNOS; Table 4) | Compound | other results |
| --- | --- | --- | --- | --- | --- | --- | --- | --- |
| 68 µM | 9 µM | 2.4 fold | 0.046 µM | 11 µM |  |  | Cc1cc(N)nc(CC2CNCC2OCCNC2CC2c2cccc(F)c2)c1 [Compound 2b, 6-(((3S,4S)/(3R,4R)-4-(2-(2-(3-Fluorophenyl)cyclopropylamino)ethoxy)pyrrolidin-3-yl)methyl)-4-methylpyridin-2-amine] | selectivity n/e (bovine eNOS; Table 2): 1500; IC50/IC50(cell) × 10^−2 (nNOS; ratio of purified nNOS IC50 to cell-based IC50, indicates relative membrane permeability): 4.4 × 10^−2; IC50 (rat nNOS): 0.4 µM; selectivity n/i (murine macrophage iNOS; Table 2): 220 |
|  | 10 µM | 1.7 fold |  |  |  |  | Cc1cc(N)nc(CC2CNCC2OCCNCC(F)c2cccc(F)c2)c1 [Compound 2c, 6-(((3S,4S)/(3R,4R)-4-(2-(2-Fluoro-2-(3-fluorophenyl)propylamino)ethoxy)pyrrolidin-3-yl)methyl)-4-methylpyridin-2-amine] |  |
|  | 19 µM | 2.0 fold |  |  |  |  | Cc1cc(N)nc(CC2CNCC2OCCNCC(F)(F)c2cccc(F)c2)c1 [Compound 2d, 6-(((3S,4S)/(3R,4R)-4-(2-(2,2-Difluoro-2-(3-fluorophenypethylamino)ethoxy)pyrrolidin-3-yemethyl)-4-methylpyridin-2-amine] | IC50 (rat nNOS; Table 3, purified enzyme assay (nNOS)): 0.7 µM; Ki (rat nNOS; read-out: Ki nNOS, Table 2, Ki calculated from measured IC50, 10 μM L-arginine): 0.08 µM; Ki (rat nNOS; [1]): 0.08 µM; drop in potency (nNOS) (rat nNOS; relative to 2c): 2.2 fold |
| 110 µM |  |  | 0.39 µM | 130 µM |  |  | Cc1cc(N)nc(C[C@H]2CNC[C@H]2OCCNCC(F)(F)c2cccc(F)c2)c1 [Compound 2da] | loss of potency (nNOS) (rat nNOS; compared to racemic 2d): five-fold less potent |
| 140 µM |  |  | 0.036 µM | 51 µM |  |  | Cc1cc(N)nc(C[C@@H]2CNC[C@@H]2OCCNCC(F)(F)c2cccc(F)c2)c1 [Compound 2db] | lower Ki (nNOS) (rat nNOS; 2db compared to 2da): 10 fold |
|  |  |  |  |  | 190 | 1200 | Cc1cc(N)nc(C[C@@H]2CNC[C@@H]2OCCNCC(F)(F)c2ccc(F)cc2)c1 [Compound 2dc] | Ki (bovine eNOS; read-out: Ki eNOS, Table 4, Ki calculated from measured IC50, 10 μM L-arginine): 31 µM; loss of potency (nNOS) (rat nNOS; compared to 2db): 4.5 fold; Ki (rat nNOS; [1]): 0.16 µM; Ki (murine macrophage iNOS; read-out: Ki iNOS, Table 4, Ki calculated from measured IC50, 10 μM L-arginine): 190 µM |
|  |  |  | 0.085 µM | 85 µM |  |  | Cc1cc(N)nc(C[C@@H]2CNC[C@@H]2OCCNCC(F)(F)c2ccccc2)c1 [Compound 2dd] |  |
| 130 µM |  |  | 0.17 µM | 26 µM | 770 | 150 | CC1CC(N)=NC(C[C@@H]2CNC[C@@H]2OCCNCC(F)(F)c2ccccc2)C1 (stereo partly drawn) [Compound 2e] | drop in potency against nNOS (rat nNOS; compared to 2dd): 2 fold; better binding to iNOS (murine macrophage iNOS; compared to 2dd): more than 3 fold |
| 64 µM |  |  | 2.7 µM | 450 µM | 24 | 170 | Cc1cc(N)nc(C[C@H]2CNC[C@H]2OCCNCC(F)(F)C2CCCCN2)c1 (stereo partly drawn) [Compound 2f] |  |
